# Patent US9051277B2, “Phenyl(oxy/thio)alkanol derivatives” (Bayer Intellectual Property GmbH, priority 2009, dated 2015)
# Assays:
# Fusarium proliferatum = experiment: Production of fumonisin FB1 by Fusarium proliferatum; type: cell-based; details: 120 h, read-out: inhibition of fumonisin FB1 production
# Fusarium graminearum = experiment: microbe, parasite or virus in culture; type: cell-based; details: 168 h, read-out: inhibition of DON/AcDON production
# Pyrenophora teres = Pyrenophora teres test (barley)/protective; type: in vivo; details: protective, evaluation 8 days after inoculation
# Procedure: [table] To produce a suitable preparation of active compound, 1 part by weight of active compound is mixed with the stated amounts of solvent and emulsifier, and the concentrate is diluted with water to the desired concentration. To test for protective activity, young plants are sprayed with the preparation of active compound at the stated application rate. After the spray coating has dried on, the plants are sprayed with a spore suspension of Pyrenophora teres. The plants remain in an incubation cabin at 20° C. and a relative atmospheric humidity of 100% for 48 hours.
# Alternaria solani = experiment: Alternaria test (tomato)/protective; type: in vivo; details: protective, 100 ppm, evaluation 3 days after inoculation
# Procedure: [table] To produce a suitable preparation of active compound, 1 part by weight of active compound is mixed with the stated amounts of solvent and emulsifier, and the concentrate is diluted with water to the desired concentration. To test for protective activity, young plants are sprayed with the preparation of active compound at the stated application rate. After the spray coating has dried on, the plants are inoculated with an aqueous spore suspension of Alternaria solani. The plants are then placed in an incubation cabin at about 20° C. and 100% relative atmospheric humidity.
# Oryza sativa (rice) = experiment: Phytoregulatory pre-emergence action, ORYSA; type: in vivo; details: 80 g of a.i./ha, visual assessment after about 3 weeks
# Source text: (§1) Seeds of monocotyledonous or dicotyledonous crop plants are placed in wood-fibre pots in sandy loam and covered with soil. The test compounds, formulated in the form of wettable powders (WP), are then, as an aqueous suspension with a water application rate of 600 l/ha (converted), with 0.2% of wetting agent added, applied at various dosages to the surface of the covering soil. After the treatment, the pots are placed in a greenhouse and kept under good growth conditions for the test plants. The visual assessment of the suppression of growth in the test plants is carried out after a trial period of about 3 weeks by comparison with untreated controls (phytoregulatory activity in percent: 100% activity=maximum inhibition of plant growth, 0% activity=plant growth like that of an untreated control.)
# Aspergillus parasiticus = experiment: microbe, parasite or virus in culture; type: cell-based; details: 168 h, read-out: inhibition of aflatoxin production
# Brassica napus (rape) [1] = experiment: Phytoregulatory post-emergence action, BRSNW; type: in vivo; details: 80 g of a.i./ha, visual rating after about 3 weeks
# Procedure: (§2) Seeds of monocotyledonous and dicotyledonous crop plants are placed in sandy loam in wood-fibre pots, covered with soil and cultivated in a greenhouse under good growth conditions. 2 to 3 weeks after sowing, the test plants are treated at the one-leaf stage. The test compounds, formulated as wettable powders (WP), are, with a water application rate of 600 l/ha (converted), with 0.2% of wetting agent added, sprayed at various dosages onto the green parts of the plants. After the test plants have been kept in the greenhouse under optimum growth conditions for about 3 weeks, the activity of the preparations is rated visually in comparison to untreated controls (phytoregulatory activity in percent: 100% activity=maximum inhibition of plant growth, 0% activity=plant growth like that of an untreated control.)
# [2] = test system: Setaria viridis (green foxtail); experiment: Phytoregulatory post-emergence action, SETVI; type: in vivo; details: 80 g of a.i./ha, visual rating after about 3 weeks
# Procedure: as §2
# Brassica napus (rape) [3] = experiment: Phytoregulatory pre-emergence action, BRSNW; type: in vivo; details: 80 g of a.i./ha, visual assessment after about 3 weeks
# Source text: as §1
# [4] = test system: Triticum aestivum (common wheat); experiment: Phytoregulatory post-emergence action, TRZAS; type: in vivo; details: 80 g of a.i./ha, visual rating after about 3 weeks
# Procedure: as §2
SMILES,inhibition at 50 µM (Fusarium proliferatum),inhibition at 50 µM (Fusarium graminearum),Efficacy in % (Pyrenophora teres; application rate 1000 ppm),Efficacy in % (Alternaria solani),Inhibition of the growth of useful or harmful plants in % ORYSA (Oryza sativa (rice)),inhibition at 50 µM (Aspergillus parasiticus),Inhibition of the growth of useful or harmful plants in % BRSNW (Brassica napus (rape) [1]),Inhibition of the growth of useful or harmful plants in % SETVI [2],Efficacy in % (Pyrenophora teres; application rate 500 ppm),Inhibition of the growth of useful or harmful plants in % BRSNW (Brassica napus (rape) [3]),Inhibition of the growth of useful or harmful plants in % TRZAS [4]
CC(C)(C)C(O)(COc1ccc(I)cc1)Cn1cncn1 (stereo not shown) [Compound 1],> 80%,> 80%,86%,94%,,,,,,,
CC(C)(C)C(O)(CSc1ccc(I)cc1)Cn1cncn1 (stereo not shown) [Compound 3],> 80%,> 80%,,,,,,,,,
CC(C)(C)C(O)(COc1ccc(Br)cc1)c1cncnc1 (stereo not shown) [Compound 11],> 80%,> 80%,,99%,60%,> 80%,60%,70%,100%,80%,70%
CC(C)(C)C(O)(CSc1ccc(Br)cc1)c1cncnc1 (stereo not shown) [Compound 13],> 80%,,,,,,,,,,
CC(C)C(O)(COc1ccc(Br)cc1)c1cncnc1 (stereo not shown) [Compound 21],> 80%,> 80%,,,,,,,,,
"CC(C)(C)C(O)(COc1ccc(Cl)cc1)c1cncnc1 (stereo not shown) [EP-A 0 028 755, Example 1, reference compound]",,,,75%,40%,,60%,50%,93%,70%,50%
"CC(C)(C)C(O)(COc1ccc(Cl)cc1)Cn1cncn1 (stereo not shown) [EP-A 0 040 345, Example I-1, reference compound]",,,57%,45%,,,,,,,
